Experimental data reported in patent publication US6444615B1, “Herbicidal imidazolidinetrione and thioxo-imidazolidinediones” (Dow AgroSciences LLC, priority 2000, dated 2002).

Legend:
[1] = system: Hairy Beggarticks (Bidens pilosa); assay: Herbicidal post-emergence test, Hairy Beggarticks; format: in vivo; settings: 1200 g/ha, scale of 0-100, 0 no activity, 100 total control, about two or four weeks after application
Procedure: (§1) Listed below, a typical planting design for the test, consisting of four monocot weeds, four dicot weeds and one sedge weed. [table] For each compound, evaluation tests were carried out according to the following procedures: For preemergence tests, immediately after planting, the test compound was sprayed directly onto the soil surface. The flats or pots were placed in the greenhouse and then watered. For postemergence tests, seeds were allowed to germinate and grow for 10 to 21 days before application. The test plants were selected for uniformity, size and stage of development. The test plants were then treated with the test compound, returned to the greenhouse and watered. Untreated plants were used as a comparison. The compound to be evaluated was dissolved in an appropriate solvent, usually acetone, or a formulation of the evaluated compounds as described above, was added to the water, and sprayed over the flats or pots using a carrier volume equivalent to 187 or 468 liters per hectare to give a rate of application in grams per hectare (g/ha). About two or four weeks after application of the test compounds, the state of the plant was observed. Each species was evaluated on a scale of 0-100 in which 0 equals no activity and 100 equals total control.

[2] = system: Perennial Ryegrass (Lolium perenne); assay: Herbicidal post-emergence test, Perennial Ryegrass; format: in vivo; settings: 1200 g/ha, scale of 0-100, 0 no activity, 100 total control, about two or four weeks after application
Procedure: as §1

[3] = system: Nightshade, (black) (Solanum nigrum); assay: Herbicidal post-emergence test, Nightshade (black); format: in vivo; settings: 1200 g/ha, scale of 0-100, 0 no activity, 100 total control, about two or four weeks after application
Procedure: as §1

[4] = system: Crabgrass (large) (Digitaria sanguinalis); assay: Herbicidal pre-emergence test, Crabgrass (large); format: in vivo; settings: 1200 g/ha, scale of 0-100, 0 no activity, 100 total control, about two or four weeks after application
Procedure: as §1

[5] = system: Crabgrass (large) (Digitaria sanguinalis); assay: Herbicidal post-emergence test, Crabgrass (large); format: in vivo; settings: 1200 g/ha, scale of 0-100, 0 no activity, 100 total control, about two or four weeks after application
Procedure: as §1

[6] = system: Perennial Ryegrass (Lolium perenne); assay: Herbicidal pre-emergence test, Perennial Ryegrass; format: in vivo; settings: 1200 g/ha, scale of 0-100, 0 no activity, 100 total control, about two or four weeks after application
Procedure: as §1

[7] = system: Barnyardgrass (Echinochloa crusgalli); assay: Herbicidal post-emergence test, Barnyardgrass; format: in vivo; settings: 1200 g/ha, scale of 0-100, 0 no activity, 100 total control, about two or four weeks after application
Procedure: as §1

[8] = system: Smartweed, (pale) (Polygonum lapathifolium); assay: Herbicidal pre-emergence test, Smartweed (pale); format: in vivo; settings: 1200 g/ha, scale of 0-100, 0 no activity, 100 total control, about two or four weeks after application
Procedure: as §1

[9] = system: Velvetleaf (Abutilon theophrasti); assay: Herbicidal post-emergence test, Velvetleaf; format: in vivo; settings: 1200 g/ha, scale of 0-100, 0 no activity, 100 total control, about two or four weeks after application
Procedure: as §1

[10] = system: Hairy Beggarticks (Bidens pilosa); assay: Herbicidal pre-emergence test, Hairy Beggarticks; format: in vivo; settings: 1200 g/ha, scale of 0-100, 0 no activity, 100 total control, about two or four weeks after application
Procedure: as §1

[11] = system: Smartweed, (pale) (Polygonum lapathifolium); assay: Herbicidal post-emergence test, Smartweed (pale); format: in vivo; settings: 1200 g/ha, scale of 0-100, 0 no activity, 100 total control, about two or four weeks after application
Procedure: as §1

[12] = system: Velvetleaf (Abutilon theophrasti); assay: Herbicidal pre-emergence test, Velvetleaf; format: in vivo; settings: 1200 g/ha, scale of 0-100, 0 no activity, 100 total control, about two or four weeks after application
Procedure: as §1

[13] = system: Foxtail, (green) (Setaria viridis); assay: Herbicidal pre-emergence test, Foxtail (green); format: in vivo; settings: 1200 g/ha, scale of 0-100, 0 no activity, 100 total control, about two or four weeks after application
Procedure: as §1

[14] = system: Barnyardgrass (Echinochloa crusgalli); assay: Herbicidal pre-emergence test, Barnyardgrass; format: in vivo; settings: 1200 g/ha, scale of 0-100, 0 no activity, 100 total control, about two or four weeks after application
Procedure: as §1

[15] = system: Nutsedge, (yellow) (Cyperus esculentus); assay: Herbicidal pre-emergence test, Nutsedge (yellow); format: in vivo; settings: 1200 g/ha, scale of 0-100, 0 no activity, 100 total control, about two or four weeks after application
Procedure: as §1

[16] = system: Foxtail, (green) (Setaria viridis); assay: Herbicidal post-emergence test, Foxtail (green); format: in vivo; settings: 1200 g/ha, scale of 0-100, 0 no activity, 100 total control, about two or four weeks after application
Procedure: as §1

[17] = system: Nutsedge, (yellow) (Cyperus esculentus); assay: Herbicidal post-emergence test, Nutsedge (yellow); format: in vivo; settings: 1200 g/ha, scale of 0-100, 0 no activity, 100 total control, about two or four weeks after application
Procedure: as §1

[18] = system: Nightshade, (black) (Solanum nigrum); assay: Herbicidal pre-emergence test, Nightshade (black); format: in vivo; settings: 1200 g/ha, scale of 0-100, 0 no activity, 100 total control, about two or four weeks after application
Procedure: as §1

| Compound | melting point [°C] | Herbicidal Activity BID (post-emergence) [1] | Herbicidal Activity RYE (post-emergence) [2] | Herbicidal Activity NS (post-emergence) [3] | Herbicidal Activity CRB (pre-emergence) [4] | Herbicidal Activity CRB (post-emergence) [5] | Herbicidal Activity RYE (pre-emergence) [6] | Herbicidal Activity BYG (post-emergence) [7] | Herbicidal Activity SMT (pre-emergence) [8] | Herbicidal Activity VEL (post-emergence) [9] | Herbicidal Activity BID (pre-emergence) [10] | Herbicidal Activity SMT (post-emergence) [11] | Herbicidal Activity VEL (pre-emergence) [12] | Herbicidal Activity FOX (pre-emergence) [13] | Herbicidal Activity BYG (pre-emergence) [14] | Herbicidal Activity NUT (pre-emergence) [15] | Herbicidal Activity FOX (post-emergence) [16] | Herbicidal Activity NUT (post-emergence) [17] | Herbicidal Activity NS (pre-emergence) [18] |
| --- | --- | --- | --- | --- | --- | --- | --- | --- | --- | --- | --- | --- | --- | --- | --- | --- | --- | --- | --- |
| O=C1NC(=O)N(C2(OC3CC(F)CC3Cl)C=CC=CC2)C1=O (centres unmarked) [Compound 2, 1-(2-fluoro-4-chloro-5-cyclopentyloxy)phenyl-2,4,5-imidazolidinetrione] | 130 to 140 |  |  |  |  |  |  |  |  |  |  |  |  |  |  |  |  |  |  |
| COCC1(N2C(=O)NC(=O)C2=O)C=CC=C(OC2CC(F)CC2Cl)C1 (centres unmarked) [Compound 5, 1-methoxymethyl-3-(2-fluoro-4-chloro-5-cyclopentyloxy)phenyl-2,4,5-imidazolidinetrione] | 90 to 91 |  |  |  |  |  |  |  |  |  |  |  |  |  |  |  |  |  |  |
| C#CCN1C(=O)COc2cc(F)c(N3C(=O)C(=O)N(CC(F)(F)F)C3=O)cc21 [Compound 24] |  | 40 | 0/0 | 60 | 0/0 | 0/0 | 0/0 | 0/0 | 0 | 60 | 0 | 40 | 0 | 0/0 | 0/0 | 0/0 | 0/0 | 0/0 | 0 |
| C#CCN1C(=O)COc2cc(F)c(N3C(=O)C(=O)N(CCC)C3=S)cc21 [Compound 25] |  | 100/100 | 0 | 100/100 | 100 | 30 | 85 | 30 | 100/100 | 100/100 | 100/100 | 100/100 | 100/100 | 100 | 100 | 80 | 60 | 40 | 100/100 |
| CCCN1C(=O)C(=O)N(c2cc(F)c(F)cc2F)C1=O [Compound C1, reference compound] |  | 40 | 0/0 | 80 | 0/0 | 0/0 | 0/0 | 0/0 | 0 | 60 | 0 | 60 | 0 | 0/0 | 0/0 | 0/0 | 0/0 | 0/0 | 0 |
